We go through seven molecules from patent US20200397855A1, “MODULATION OF PLA2-G1B IN THERAPY” (priority 2018, published 2020).

Test [1] concerns pSTAT5 NT in CD4 T cells stimulated with IL-7. Kind of test: PLA2-GIB bioassay on CD4 T cells: pSTAT5 nuclear translocation in response to IL-7 (confocal microscopy). In kind it is cell-based, human. Conditions: for effect on nuclear translocation of phosphoSTAT5 (pSTAT5 NT) induced by IL-7: buffer, FIG. 1A; for pSTAT5 NT in response to IL-7: FIG. 2. An excerpt: Purification of Human CD4 T-lymphocytes—Venous blood was obtained from healthy volunteers through the EFS (Etablissement Francais du Sang, Centre Necker-Cabanel, Paris). CD4 T-cells were purified from whole blood using RosetteSep Human CD4+ T cell Enrichment Cocktail (Stem Cell, 15062). This cocktail contains mouse and rat monoclonal antibodies purified from mouse ascites fluid or hybridoma culture supernatant, by affinity chromatography using protein A or Protein G sepharose. These antibodies are bound in bispecific tetrameric antibody complexes which are directed against cell surface antigens on human hematopoietic cells (CD8, CD16, CD19, CD36, CD56 CD66b, TCRγ/δ) and glycophorin A on red blood cells. The rosetteSep antibody cocktail crosslinks unwanted cells in human whole blood to multiple red blood cells, forming immunorosettes. This increases the density of unwanted cells, such that they pellet along with the free red blood cells when centrifuged over a buoyant density medium such as lymphocytes separation medium (Eurobio, CMSMSL01-01).
Whole blood was incubated with RosetteSep Human CD4+ T cell Enrichment Cocktail at 50 μl/ml for 20 minutes at room temperature under gentle shaking (100 rpm), diluted with an equal volume of PBS+2% foetal bovine serum (FBS) and mixed gently. The diluted samples were centrifuged 20 minutes at 1200×g on top of lymphocytes separation medium. The enriched cells were then collected from the density medium at plasma interface and washed twice with PBS+2% FBS. Cells were subsequently resuspended in RPMI 1640 medium (Lonza) supplemented with 5% FBS, 50 mM HEPES pH 7.4, glutamine, penicillin, streptomycin and fungizone (complete medium), counted with a Moxi Z mini automated cell counter (ORFLO, MXZ000). Cells suspension was adjusted at 7×10^6 cells/ml and equilibrated at least 2 h at 37° C. in a 5% CO2 humidified atmosphere.

The test system of test [2] is PLA2-GIB activity on the membrane of Jurkat E6.1 T cells. Description: PLA2-GIB enzymatic assay on [3H] arachidonic acid labelled Jurkat E6.1 T cells. The class given is cell-based, human. Conditions: for PLA2-GIB activity vs scrambled PEP3: pretreatment 21 h. How it is done: (§1) Jurkat E6.1 T cells (ECACC 88042803) or gC1qR KO Jurkat E6.1 T cells were incubated for 17 h at 5×10^5 cells/ml with 1 μCi/ml of arachidonic acid [5,6,8,9,11,14,15-^3H(N)] (Perkin Elmer, NET298Z250UC) in RPMI 1640 medium (Lonza) supplemented with 10% FBS, 50 mM HEPES pH 7.4, glutamine, penicillin, streptomycin and fungizone at 2 ml/well in 6-well plates at 37° C. in a 5% CO2 humidified atmosphere. Cells were washed twice with RPMI with 10% FBS by centrifugation at 300×g for 10 minutes at room temperature and then frozen in 90% FBS 10% DMSO at 10^7 cells/ml/vial at −80° C. Percent of [3H] arachidonic acid in CD4 T cells is the (1 minus ratio of [3H] arachidonic acid in the supernatant of CD4 T cells without cells (cpm/ml) on total [3H] arachidonic acid in supernatant and cells (cpm/ml).
To test PLA2-GIB activity on [3H] arachidonic acid labelled Jurkat E6.1 T lymphocytes, cells were unfrozen in 10% FBS RPMI preheated at 37° C. by centrifugation at 300×g for 10 minutes at room temperature, washed twice in 2.5% FBS RPMI, and equilibrated at 5×10^4 or 10^5 Jurkat E6.1 T cells/400 μl/well in 24-well polystyrene plates for 1 h 30 at 37° C. in a 5% CO2 humidified atmosphere. Then HCV core solution or vehicle dilution in 2.5% FBS RPMI at 5.95 μM was mixed with an equal volume of a PLA2-GIB solution at 630 nM or 2 μM 2.5% FBS RPMI and 100 μl were added per well at the same time for 2 h. For peptide treatments, cells were pretreated for 2 h, 4 h or 21 h, as indicated on figures, with 50 μl per well of peptide solutions at 110 μM or 55 μM in 2.5% FBS RPMI. Then 50 μl per well of PLA2-GIB at 630 nM or 2 μM 2.5% FBS RPMI or medium alone were added for 2 h. Cells and supernatant were collected in eppendorf tubes and centrifuged at 580×g for 10 minutes at room temperature. The [3H] arachidonic acid released in cell supernatant was quantified in 300 μl with 16 ml of Ultima gold (Perkin Elmer, 6013329) in low diffusion vials (Perkin Elmer, 6000477) on a counter (tri-Carb 2800 TR liquid scintillation analyzer, Perkin Elmer).

A further test addresses T1, gC1qR (Homo sapiens, UniProt Q07021).
T1 sequence (Q07021 74-282): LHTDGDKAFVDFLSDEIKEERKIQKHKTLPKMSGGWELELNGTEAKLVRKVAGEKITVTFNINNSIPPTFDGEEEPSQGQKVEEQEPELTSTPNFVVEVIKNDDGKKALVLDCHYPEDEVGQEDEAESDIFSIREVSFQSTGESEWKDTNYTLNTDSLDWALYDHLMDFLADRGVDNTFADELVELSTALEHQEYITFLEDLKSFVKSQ
Kind of test: gC1qR-peptides binding assay (ELISA). Conditions: peptide coated on microplate, His-tag-gC1qR 0 to 3 μg/well, FIG. 12. How it is done:
The unbound protein was removed; the wells washed 2× with TBST (20 mM Tris-HCl pH 7.5, 150 mM NaCl, and 0.05% Tween-20) and the unreacted sites blocked by incubation (30 min, room temp) with 300 μl of 3% BSA in TBST. After washing (2× with TBST), the microtiter plate bound peptides was incubated (2 h, room temp.) with different amount of His-tag-gC1qR ranging from 0 to 3 μg/well in triplicate. After washing (5 times with TBST), 100 μl of anti-His tag-HRP antibody (1:1000; 71840-3, Merck) in 3% BSA in TBST was added per well and incubated for 2 h at room temperature. Microplates wells were then washed (5 times with TBST) and 100 μl of TMB ELISA substrate standard solution (UP664781, Interchim) was added per well. Reaction was stopped with 100 μl per well of a H2SO4 solution at 0.16M and OD at 450 nm was measured on a microplate reader (Tecan Infinite M1000 Pro).
(In general: In an ELISA, binding on a coated surface is turned into a signal by an enzyme label.)

The subject of test [3] is PLA2-GIB enzymatic activity on CD4 T cells membranes. Description: PLA2-GIB enzymatic assay on [3H] arachidonic acid labelled CD4 T cells. The class given is cell-based, human. How it is done: as §1, with “PLA2-GIB enzymatic assay on [3H] arachidonic acid labelled CD4 T cells or Jurkat” for “Jurkat”, “cells—Purified CD4 T-cells” for “cells (ECACC 88042803) or gC1qR KO Jurkat E6.1 T cells”, “16” for “17”, “2×10^6” for “5×10^5”, “580×g” for “300×g”
To test PLA2-GIB activity on [3H] arachidonic acid labelled CD4 T lymphocytes, cells were unfrozen in 10% FBS RPMI preheated at 37° C. by centrifugation at 580×g for 10 minutes at room temperature, washed twice in 2.5% FBS RPMI, and equilibrated at 2×10^5 CD4 T cells/400 μl/well in 24-well polystyrene plates for 1 h 30 at 37° C. in a 5% CO2 humidified atmosphere. […] Cells and supernatant were collected in eppendorf tubes and centrifuged at 580×g for 10 minutes at room temperature. The [3H] arachidonic acid released in cell supernatant was quantified in 300 μl with 16 ml of Ultima gold (Perkin Elmer, 6013329) in low diffusion vials (Perkin Elmer, 6000477) on a counter (tri-Carb 2800 TR liquid scintillation analyzer, Perkin Elmer).
To study PLA2-GIB effect on CD4 T cells membranes we developed a new enzymatic assay in which CD4 T cells are labelled with [3H] arachidonic acid. When these cells are exposed to PLA2-GIB the enzymatic activity on CD4 T cells releases [3H] arachidonic acid. The quantification of [3H] arachidonic acid allowed us to quantify PLA2-GIB activity.

[4] abbreviates: peptide alone, without PLA2-GIB, FIG. 5B.

As to “C1q: Complement component C1q from human serum (Sigma C1740), natural ligand of gC1qR”, the “inhibition of pSTAT5 NT” value is given as 75-85% in test [1] (C1q (10 μg/ml) with 5 nM PLA2-GIB, FIG. 6A) and 40% in test [1] (C1q alone (10 μg/ml), FIG. 6A).
Regarding “NH2-PWNASWSNKSLDDIW-COOH (H-PWNASWSNKSLDDIW-OH) [PEP3]”, the “inhibition of pSTAT5 NT” value is on record as 18% in test [1] (0.025 μg/ml PEP3 with 5 nM PLA2-GIB, FIG. 5B); 5% in test [1] (0.5 μg/ml PEP3 alone, n=3 donors, FIG. 5C); 51% in test [1] (2.5 μg/ml PEP3 with 5 nM PLA2-GIB, FIG. 5B). In addition, the “effect on pSTAT5 NT” value in test [1] (setting [4]) is on record as “no effect”. The “PLA2-GIB activity vs scrambled PEP3” value in test [2] (WT Jurkat E6.1 cells, FIG. 13) is listed as “increased significantly”. Also, the “PLA2-GIB activity on the membrane of Jurkat E6.1 T cells vs scrambled PEP3” value in test [2] (pretreatment 4 h or more, peptide 11 μM, 200 nM PLA2-GIB, FIG. 11) is “significantly increased”. Further, the “binding to gC1qR” value in the test with gC1qR is on record as “binds to gC1qR”.
As for “NH2-PWNATWTQRTLDDIW-COOH (H-PWNATWTQRTLDDIW-OH) [CTL peptide, control peptide (CTL), reference compound]”, the “effect on pSTAT5 NT” value in test [1] (setting [4]) is given as “no effect”; in test [1] (peptide with 5 nM PLA2-GIB, FIG. 5B), “no effect”. For the same molecule, the “binding to gC1qR” value in the test with gC1qR is reported as “essentially do not”.
Regarding “NH2-SGEGGWSNGSLVDIM-COOH (H-SGEGGWSNGSLVDIM-OH) [HP Pg]”, the “PLA2-GIB activity vs scrambled PEP3” value in test [2] (200 nM PLA2-GIB, FIG. 15) was “significantly increased”.
For the molecule “NH2-WNWDSKILSDPAWNS-COOH (H-WNWDSKILSDPAWNS-OH) [Scrambled PEP3, Scrambled PEP3 control peptide]”, in the test with gC1qR, the “binding to gC1qR” value is given as “essentially do not”.
On to “PLA2-GIB: Recombinant human group IB pancreatic phospholipase A2, produced in E. coli or CHO-S (SEQ ID NO: 1)”, for which the “effect on nuclear translocation of phosphoSTAT5 (pSTAT5 NT) induced by IL-7” value in test [1] (5 nM PLA2-GIB alone) is reported as “does not affect”; in test [1] (75 nM PLA2-GIB alone), “significantly decreases”. The “pSTAT5 NT in response to IL-7” value in test [1] (5 nM PLA2-GIB, compared with no PLA2-GIB) is “biologically similar”; in test [1] (75 nM PLA2-GIB), 50%; in test [1] (250 nM PLA2-GIB), 10%. Also, the “inhibition of pSTAT5 NT” value in test [1] (75 nM PLA2-GIB alone, FIG. 4) is reported as 49%; in test [1] (250 nM PLA2-GIB alone, FIG. 4), 79%.

B1: HCV core protein: Recombinant HCV core protein (Prospec HCV-011), SEQ ID NO: 43 (protein)
chain: MSTNPKPQRKTKRNTIRRPQDVKFPGGGQIVGGVYLLPRRGPRLGVRATRKTSERSQPRGRRQPIPKARRPEGRTWAQPGYPWPLYGNEGMGWAGWLLSPRGSRPSWGPTDPRRRSRNLGKVIDTLTCGFADLMGYVPLVGAPLGGAARALAHGVRALEDGVNYATGNLPGCSFSISLWXLLSCLTIPASA
modifications: not fully specified; X: residue not identified in the source
B1: the “release of [3H] arachidonic acids by CD4 T cells” value is “slightly and significantly increases” in test [3] (10 μg/ml HCV core protein alone, FIG. 8B); “slightly induces” in test [3] (HCV core protein alone at 10 and 20 μg/ml, FIG. 8A). In addition, the “fold increase of PLA2-GIB activity” value was 26 fold in test [3] (10 μg/ml HCV core protein, 63 nM PLA2-GIB, FIG. 8A); 26 fold in test [3] (10 μg/ml HCV core protein, 63 nM PLA2-GIB, n=3 donors, FIG. 8B); 16 fold in test [3] (10 μg/ml HCV core protein, 200 nM PLA2-GIB, FIG. 8A); 16 fold in test [3] (10 μg/ml HCV core protein, 200 nM PLA2-GIB, n=3 donors, FIG. 8B); 36 fold in test [3] (20 μg/ml HCV core protein, 63 nM PLA2-GIB, FIG. 8A); 26 fold in test [3] (20 μg/ml HCV core protein, 200 nM PLA2-GIB, FIG. 8A). Also, the “PLA2-GIB activity on the membrane of Jurkat E6.1 T cells” value in test [2] (HCV core 595 nM (10 μg/ml), FIG. 14) was “significantly increased”.
